The assay concerns monoclonal antibody 24B11 (receptor lactone synthase secreted by hybridoma 24B11, ATCC HB9488). As to the kind of experiment: Kinetics of lactone-forming cyclization catalyzed by monoclonal receptor lactone synthase 24B11 (phenol release at 271 nm, Lineweaver-Burk). The format is biochemical, mouse.

Read-outs that look alike come from different tables or passages of the source.

With `CC(=O)NCC(O)CCCC(=O)Oc1ccccc1` (racemic) [phenyl 6-acetamido-5-hydroxyhexanoate], the kcat / kuncat (catalyzed versus uncatalyzed first order cyclization rate constant) was determined as 167. The rate acceleration (presence versus absence of the catalytic lactone synthase molecule) is given as 167 fold. Also, the Km (racemic substrate ligand 20-100 uM, receptor 2 uM, 25 mM phosphate buffer pH 7.0, 25 degrees C, read-out: Km) was determined as 76 µM. Besides, the kcat (receptor 2 uM (IgG, 150,000 daltons), pH 7.0, 25 degrees C) stood at 0.50 L/min. The Vmax (receptor 2 uM, substrate 20-100 uM, pH 7.0, 25 degrees C) was determined as 0.99 µM/min.
Consider `CC(=O)NCC(O)CCCC(=O)Oc1ccccc1` (single isomer, unassigned) [reactive enantiomer of the substrate ligand], for which, where the note is “in the absence of binding by the unreactive enantiomer, read-out: Km for the reactive enantiomer of the substrate ligand”, the Km is roughly 38 µM.

As a reminder, the Km is the concentration of substrate that gives half-maximal velocity. The Vmax is the rate approached at saturating substrate.

For the origin of these results see patent publication US5079152A, “Antibody combining sites that exhibit stereoselective synthase activity, and methods using the same” (Scripps Clinic and Research Foundation, priority 1987, dated 1992).
